Three molecules from paper PMC6918025, “Genomewide and Enzymatic Analysis Reveals Efficient D-Galacturonic Acid Metabolism in the Basidiomycete Yeast Rhodosporidium toruloides” (mSystems, 2019) can be followed below.

What all share (type): biochemical, Rhodotorula toruloides
Test [1] relates to T1, RTO4_9774 (L-glyceraldehyde reductase).
T1 construct: gene GaaD
The test can be described thus: NADPH loss at […] nm. The conditions noted are these: 0.3 mM NADPH, pH 7, 30°C.

For test [2], the system named is T2, RTO4_12062 (L-galactonate dehydratase).
T2 construct: gene GaaB; full-length, N-terminal HIS6-TEV tag removed by TEV protease, expressed in E. coli Rosetta, IMAC
Kind of test: semicarbazide assay at […] nm. The conditions noted are these: 5 mM MgCl2, 50 mM sodium phosphate pH 7.0; tag removed.

The test system of test [3] is RTO4_11882 (D-galUA reductase, GAR1 homolog). The test can be described thus: NADPH loss at […] nm. The conditions noted are these: 0.3 mM NADPH, pH 7, 30°C.

The Km is the substrate concentration at which the rate is half of its maximum.

SMILES strings stand for the structures.

For `O=C[C@@H](O)CO` [L-glyceraldehyde], the Km in test [1] was determined as 0.9 mM.

Consider `O=C(O)[C@@H](O)[C@H](O)[C@H](O)[C@@H](O)CO` [L-galactonate], for which the Km in test [2] came out at 5.8 mM.

Regarding `O=C(O)[C@H]1OC(O)[C@H](O)[C@@H](O)[C@H]1O` (stereo partly drawn) [D-galUA], the Km in test [3] was around 7 mM.
